The record followed here is patent US9073855B2, “BCL-2 selective apoptosis-inducing agents for the treatment of cancer and immune diseases” (AbbVie Inc., priority 2008, dated 2015).

The test system of assay [1] is FL5.12/Bcl-2 cells. Put plainly: FL5.12/Bcl-2 cell viability assay under IL-3 withdrawal (CellTitre Glo). It counts as cell-based, murine. The following applies: Mus musculus, IL-3 withdrawn 48 hrs, then 24 hrs with compound. The gist of the method: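 Viability measured by CellTitre Glo after FL5.12/Bcl-2 murine cells, starved of IL-3 for 48 hrs, were treated with compounds for another 24 hrs. Killing reflects inhibition of Bcl-2 sequestration of Bim and Puma.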

The target of assay [2] is GST-Bcl-XL (Homo sapiens, UniProt Q07817). Put plainly: TR-FRET binding assay, GST-Bcl-XL with F-Bak peptide probe. The following applies: TR-FRET Binding Affinity, GST-Bcl-XL, F-Bak peptide probe. The gist of the method:
(§1)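 Displacement of a fluorescein-labelled Bak peptide from the GST-tagged protein was followed by time-resolved FRET with a terbium anti-GST donor after 3 h incubation at room temperature. Inhibition constants were calculated with Wang's equation.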
For orientation: In TR-FRET formats the signal depends on donor and acceptor labels being close together.

Assay [3] deals with GST-Bcl-2 (Homo sapiens, UniProt P10415). Put plainly: TR-FRET binding assay, GST-Bcl-2 with F-Bak peptide probe. The following applies: TR-FRET Binding Affinity, GST-Bcl-2, F-Bak peptide probe. The gist of the method:
as §1

Broadly, the EC50 is the midpoint of the concentration-response curve. Usually Ki stands for the dissociation constant of the complex between target and ligand, obtained from inhibition or displacement.

Sequence of GST-Bcl-XL (Q07817 whole entry): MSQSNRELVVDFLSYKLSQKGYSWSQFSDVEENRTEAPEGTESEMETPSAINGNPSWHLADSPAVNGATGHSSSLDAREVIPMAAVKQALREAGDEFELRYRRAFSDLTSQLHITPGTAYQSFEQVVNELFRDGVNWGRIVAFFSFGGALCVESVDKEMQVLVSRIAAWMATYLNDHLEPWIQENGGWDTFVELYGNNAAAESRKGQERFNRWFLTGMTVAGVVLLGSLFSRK
Sequence of GST-Bcl-2 (P10415 whole entry): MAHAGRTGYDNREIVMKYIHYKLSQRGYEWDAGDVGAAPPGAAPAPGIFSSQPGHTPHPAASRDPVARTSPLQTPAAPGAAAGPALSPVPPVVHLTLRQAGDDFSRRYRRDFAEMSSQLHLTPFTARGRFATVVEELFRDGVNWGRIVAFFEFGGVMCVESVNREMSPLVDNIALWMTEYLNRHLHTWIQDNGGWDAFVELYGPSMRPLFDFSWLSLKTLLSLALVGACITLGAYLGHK

Take `CC1(C)CCC(CN2CCN(c3ccc(C(=O)NS(=O)(=O)c4ccc(NC5CCS(=O)(=O)C5)c([N+](=O)[O-])c4)c(Oc4cccc5[nH]ccc45)c3)CC2)=C(c2ccc(Cl)cc2)C1` (stereo not drawn) [Example 299, 4-(4-{[2-(4-chlorophenyl)-4,4-dimethylcyclohex-1-en-1-yl]methyl}piperazin-1-yl)-N-({4-[(1,1-dioxidotetrahydrothien-3-yl)amino]-3-nitrophenyl}sulfonyl)-2-(1H-indol-4-yloxy)benzamide]: the EC50 in assay [1] worked out at 77.2 nM. In addition, the results for the Ki in assay [2] and in assay [3] were 246 nM and 0.425 nM, respectively.
For `CC1(C)CCC(CN2CCN(c3ccc(C(=O)NS(=O)(=O)c4ccc(NCC5CCS(=O)(=O)CC5)c([N+](=O)[O-])c4)c(Oc4cccc5[nH]ccc45)c3)CC2)=C(c2ccc(Cl)cc2)C1` [Example 301, 4-(4-{[2-(4-chlorophenyl)-4,4-dimethylcyclohex-1-en-1-yl]methyl}piperazin-1-yl)-N-[(4-{[(1,1-dioxidotetrahydro-2H-thiopyran-4-yl)methyl]amino}-3-nitrophenyl)sulfonyl]-2-(1H-indol-4-yloxy)benzamide], the half-maximal effective concentration (EC50) in assay [1] turned out to be 59.5 nM. Besides, the values for the Ki in assay [2] and in assay [3] were over 660 nM and 0.291 nM, respectively.
As to `CC1(C)CCC(CN2CCN(c3ccc(C(=O)NS(=O)(=O)c4ccc(NCC(F)F)c([N+](=O)[O-])c4)c(Oc4ccc5[nH]ccc5c4)c3)CC2)=C(c2ccc(Cl)cc2)C1` [Example 302, 4-(4-{[2-(4-chlorophenyl)-4,4-dimethylcyclohex-1-en-1-yl]methyl}piperazin-1-yl)-N-({4-[(2,2-difluoroethyl)amino]-3-nitrophenyl}sulfonyl)-2-(1H-indol-5-yloxy)benzamide], the EC50 in assay [1] was 32.4 nM. The values for the inhibition constant (Ki) in assay [2] and in assay [3] were over 660 nM and 0.504 nM, respectively.
The like results for `CC1(C)CCC(CN2CCN(c3ccc(C(=O)NS(=O)(=O)c4ccc(NCC5CCOCC5)c(S(=O)(=O)C(F)(F)F)c4)c(Oc4cccc5[nH]ccc45)c3)CC2)=C(c2ccc(Cl)cc2)C1` [Example 303, 4-(4-{[2-(4-chlorophenyl)-4,4-dimethylcyclohex-1-en-1-yl]methyl}piperazin-1-yl)-2-(1H-indol-4-yloxy)-N-({4-[(tetrahydro-2H-pyran-4-ylmethyl)amino]-3-[(trifluoromethyl)sulfonyl]phenyl}sulfonyl)benzamide] were, in that order, over 500 nM, over 660 nM and 1.48 nM.
`CC1(C)CCC(CN2CCN(c3ccc(C(=O)NS(=O)(=O)c4ccc(NC5CCC(F)(F)CC5)c([N+](=O)[O-])c4)c(Oc4ccc5[nH]ccc5c4)c3)CC2)=C(c2ccc(Cl)cc2)C1` [Example 305, 4-(4-{[2-(4-chlorophenyl)-4,4-dimethylcyclohex-1-en-1-yl]methyl}piperazin-1-yl)-N-({4-[(4,4-difluorocyclohexyl)amino]-3-nitrophenyl}sulfonyl)-2-(1H-indol-5-yloxy)benzamide]: in assay [1], the EC50 is over 500 nM. Besides, the Ki was over 660 nM in assay [2] and 3.68 nM in assay [3].
Take `CC1(C)CCC(CN2CCN(c3ccc(C(=O)NS(=O)(=O)c4ccc(OCC5(F)CCOCC5)c([N+](=O)[O-])c4)c(Oc4cccc5[nH]ccc45)c3)CC2)=C(c2ccc(Cl)cc2)C1` [Example 306, 4-(4-{[2-(4-chlorophenyl)-4,4-dimethylcyclohex-1-en-1-yl]methyl}piperazin-1-yl)-N-({4-[(4-fluorotetrahydro-2H-pyran-4-yl)methoxy]-3-nitrophenyl}sulfonyl)-2-(1H-indol-4-yloxy)benzamide]: the EC50 in assay [1] came out at 7.16 nM. The Ki in assay [2] came out at 47.9 nM; in assay [3], 0.077 nM.
As to `CC(C)n1cc(CN2CCN(c3ccc(C(=O)NS(=O)(=O)c4ccc(NCC5CCOCC5)c([N+](=O)[O-])c4)c(Oc4ccc5[nH]ccc5c4)c3)CC2)c(-c2ccc(Cl)cc2)cc1=O` [Example 307, 4-(4-{[4-(4-chlorophenyl)-1-isopropyl-6-oxo-1,6-dihydropyridin-3-yl]methyl}piperazin-1-yl)-2-(1H-indol-5-yloxy)-N-({3-nitro-4-[(tetrahydro-2H-pyran-4-ylmethyl)amino]phenyl}sulfonyl)benzamide], the EC50 in assay [1] was over 500 nM. Besides, the Ki was over 660 nM in assay [2] and 3.73 nM in assay [3].
The like results for `CC1(C)CCC(CN2CCN(c3ccc(C(=O)NS(=O)(=O)c4ccc(C(=O)NCC5CCOCC5)cc4)c(Oc4ccc5[nH]ccc5c4)c3)CC2)=C(c2ccc(Cl)cc2)C1` [Example 308, 4-(4-{[2-(4-chlorophenyl)-4,4-dimethylcyclohex-1-en-1-yl]methyl}piperazin-1-yl)-2-(1H-indol-5-yloxy)-N-[(4-{[(tetrahydro-2H-pyran-4-ylmethyl)amino]carbonyl}phenyl)sulfonyl]benzamide] were, in that order, over 500 nM, over 660 nM and 57.4 nM.
The like results for `COCCNc1ccc(S(=O)(=O)NC(=O)c2ccc(N3CCN(CC4=C(c5ccc(Cl)cc5)CC(C)(C)CC4)CC3)cc2Oc2cccc3[nH]ccc23)cc1S(=O)(=O)C(F)(F)F` [Example 309, 4-(4-{[2-(4-chlorophenyl)-4,4-dimethylcyclohex-1-en-1-yl]methyl}piperazin-1-yl)-2-(1H-indol-4-yloxy)-N-({4-[(2-methoxyethyl)amino]-3-[(trifluoromethyl)sulfonyl]phenyl}sulfonyl)benzamide] were, in that order, over 500 nM, over 660 nM and 4.42 nM.
On to `CC1(C)CCC(CN2CCN(c3ccc(C(=O)NS(=O)(=O)c4ccc(NC[C@H]5CC[C@H](O)CC5)c([N+](=O)[O-])c4)c(Oc4ccc5[nH]ccc5c4)c3)CC2)=C(c2ccc(Cl)cc2)C1` [Example 310, Trans-4-(4-{[2-(4-chlorophenyl)-4,4-dimethylcyclohex-1-en-1-yl]methyl}piperazin-1-yl)-N-[(4-{[(4-hydroxycyclohexyl)methyl]amino}-3-nitrophenyl)sulfonyl]-2-(1H-indol-5-yloxy)benzamide], for which the EC50 in assay [1] is 4.51 nM. Further, the results for the Ki in assay [2] and in assay [3] were over 660 nM and 0.049 nM, respectively.
In the case of `CO[C@H]1CC[C@H](CNc2ccc(S(=O)(=O)NC(=O)c3ccc(N4CCN(CC5=C(c6ccc(Cl)cc6)CC(C)(C)CC5)CC4)cc3Oc3ccc4[nH]ccc4c3)cc2[N+](=O)[O-])CC1` [Example 311, Trans-4-(4-{[2-(4-chlorophenyl)-4,4-dimethylcyclohex-1-en-1-yl]methyl}piperazin-1-yl)-2-(1H-indol-5-yloxy)-N-[(4-{[(4-methoxycyclohexyl)methyl]amino}-3-nitrophenyl)sulfonyl]benzamide], the EC50 in assay [1] was determined as 33.4 nM. Also, the figures for the Ki in assay [2] and in assay [3] were over 660 nM and 0.26 nM, respectively.
Turning to `CC1(C)CCC(CN2CCN(c3ccc(C(=O)NS(=O)(=O)c4ccc(NC[C@H]5CC[C@@H](O)CC5)c([N+](=O)[O-])c4)c(Oc4ccc5[nH]ccc5c4)c3)CC2)=C(c2ccc(Cl)cc2)C1` [Example 312, Cis-4-(4-{[2-(4-chlorophenyl)-4,4-dimethylcyclohex-1-en-1-yl]methyl}piperazin-1-yl)-N-[(4-{[(4-hydroxycyclohexyl)methyl]amino}-3-nitrophenyl)sulfonyl]-2-(1H-indol-5-yloxy)benzamide], the EC50 in assay [1] came to 19.2 nM. In addition, the results for the Ki in assay [2] and in assay [3] were over 660 nM and 0.34 nM, respectively.
The like results for `CO[C@H]1CC[C@@H](CNc2ccc(S(=O)(=O)NC(=O)c3ccc(N4CCN(CC5=C(c6ccc(Cl)cc6)CC(C)(C)CC5)CC4)cc3Oc3ccc4[nH]ccc4c3)cc2[N+](=O)[O-])CC1` [Example 313, Cis-4-(4-{[2-(4-chlorophenyl)-4,4-dimethylcyclohex-1-en-1-yl]methyl}piperazin-1-yl)-2-(1H-indol-5-yloxy)-N-[(4-{[(4-methoxycyclohexyl)methyl]amino}-3-nitrophenyl)sulfonyl]benzamide] were, in that order, 82.9 nM, 66 nM and 0.044 nM.
Consider `CC1(C)CCC(CN2CCN(c3ccc(C(=O)NS(=O)(=O)c4ccc(OCCC5CCOCC5)c([N+](=O)[O-])c4)c(Oc4cccc5[nH]ccc45)c3)CC2)=C(c2ccc(Cl)cc2)C1` [Example 314, 4-(4-{[2-(4-chlorophenyl)-4,4-dimethylcyclohex-1-en-1-yl]methyl}piperazin-1-yl)-2-(1H-indol-4-yloxy)-N-{[3-nitro-4-(2-tetrahydro-2H-pyran-4-ylethoxy)phenyl]sulfonyl}benzamide], for which the concentration for a half-maximal effect (EC50) in assay [1] is 240 nM. For the same compound, the Ki was over 660 nM in assay [2] and 3.07 nM in assay [3].
Regarding `CC1(C)CCC(CN2CCN(c3ccc(C(=O)NS(=O)(=O)c4ccc(OCCCS(C)(=O)=O)c([N+](=O)[O-])c4)c(Oc4cccc5[nH]ccc45)c3)CC2)=C(c2ccc(Cl)cc2)C1` [Example 316, 4-(4-{[2-(4-chlorophenyl)-4,4-dimethylcyclohex-1-en-1-yl]methyl}piperazin-1-yl)-2-(1H-indol-4-yloxy)-N-({4-[3-(methylsulfonyl)propoxy]-3-nitrophenyl}sulfonyl)benzamide], the EC50 in assay [1] turned out to be 67.5 nM. For the same compound, the Ki in assay [2] is 79.5 nM; in assay [3], 0.149 nM.
Consider `COCCCNc1ccc(S(=O)(=O)NC(=O)c2ccc(N3CCN(CC4=C(c5ccc(Cl)cc5)CC(C)(C)CC4)CC3)cc2Oc2ccc3[nH]ccc3c2)cc1[N+](=O)[O-]` [Example 317, 4-(4-{[2-(4-chlorophenyl)-4,4-dimethylcyclohex-1-en-1-yl]methyl}piperazin-1-yl)-2-(1H-indol-5-yloxy)-N-({4-[(3-methoxypropyl)amino]-3-nitrophenyl}sulfonyl)benzamide], for which the EC50 in assay [1] worked out at 83.1 nM. Further, the Ki is over 660 nM in assay [2] and 2.8 nM in assay [3].
